Laboratory results reported in article PMC10009108, “Design, synthesis and screening of indole acetic acid-based tri-azo moieties as antioxidants, anti-microbial and cytotoxic agents” (Frontiers in Pharmacology, 2023).
Values after ≈ are worked out from the molar mass of the structure shown.

Key:
[1] = DPPH free radical scavenging assay; conditions: at 50 μg/mL
Description: The DPPH assay was executed via the technique stated by ([Bibi et al., 2011]). DPPH(Diphenyl-1-picrylhydrazyl), a free radical, is bagged to inquire about the antioxidant ability of the synthesized compounds. 10 μL from the synthesized compound (1 mg/mL DMSO) is added to 190 μL DPPH solution., making up the final conc. of 50 μg/mL.
DPPH assay was repeated in triplicate using DMSO as -ve and ascorbic acid as + ve control; findings are expressed as means standard deviation.
It is one of the very commonly utilized methods for the assessment of the antioxidant ability of compounds. DPPH turns from purple to yellow, which indicates the synthetic compound’s scavenging potential ([Rahman et al., 2017]). DMSO and A.A. were used as -ve and +ve control. The antioxidant potential of compounds was assessed at 50 μg/mL, 25 μg/mL, 12.5 μg/mL, and 6.25 μg/mL. […] Production of free radicals is an outcome of regular oxygen consumption in the body; whenever something is missing with the natural antioxidant mechanism, the accumulation of these free radicals may lead to cytotoxic interaction with the body systems and may cause damage to genomic content of various cells, and proteins in the body ([Barbuceanu et al., 2014]). Free radical accumulation is also associated with different diseases, e.g., coronary heart disease, neuronic disorders, diabetes, necrosis, and various tumors ([Ismaili.et al., 2008]). The antioxidant potential of the compound depends upon its reducing power; the introduction of hydroxy and methoxy groups on the Benzene ring led to better reducing power or promising antioxidant activity ([Rakesh et al., 2015]).

[2] = test system: Escherichia coli (ATCC-25922); test: Antibacterial assay, micro broth dilution; type: cell-based; conditions: ATCC25922, read-out: E. coli MIC
Excerpt: (§1) The micro broth dilution method was used to establish the antibacterial potential of test samples against Staphylococcus aureus (ATCC-6538), Bacillus subtilis (ATCC-6633), Escherichia coli (ATCC-25922), Klebsiella pneumoniae (ATCC-1705), and Pseudomonas aeruginosa (ATCC-15442) and for the resistant strains of MRSA Staphylococcus aureus, P. aeruginosa and Escherichia coli. The procedure used is described by ([Sarker et al., 2007]). Bacterial inoculum was formed under aseptic conditions keeping the density near 5 × 10^4 CFU/mL in pre-autoclaved nutrient broth. Test samples of an aliquot of 5 µL were shifted to labeled wells of 96 well plates, and after that addition of 195 µL of nutrient broth; was accomplished. After that, a 2-fold serial dilution of every sample was arranged to get final concentrations of 12.5 μg/mL. Then, with the help of a micropipette, 195 µL of bacterial culture of respective strains was poured into each well; further advancement was incubating of plates for 30 min at the temperature of 37°C. […] Incubation of plates was again carried out at 37°C for 1 day, absorbance was noted, and net change in turbidity was the difference between two values of absorbance.
(§2) Schiff base tri-azo compounds were investigated for antibacterial potential. […] 6.25 μg/mL for 5b and 5g, and the least, Table 4 3.12 μg/mL was for 5f. […] Substituents with electron-withdrawing attributes, e.g., -NO2, -Cl, -OH on the aromatic ring, assert a great impact on the antibacterial activity of synthetic compounds. It is also observed that an increase in the number of -OH groups tend to enhance the activity ([Hosamani and Shingalapur, 2011]). Due to the difference in cell-wall composition of Gram + ve and -ve bacteria, different compounds show different features towards the same micro-organism ([Goszczyn’ska et al., 2015]).

[3] = test system: Klebsiella pneumoniae (ATCC-1705); test: Antibacterial assay, micro broth dilution; type: cell-based
Excerpt: as §1, §2

resistant P. aeruginosa = test: Antibacterial assay, resistant strains; type: cell-based; set-up: key to Antibacterial activity, resistant P. aeruginosa: Activity: Positive = have anti-bacterial activity; --- = no anti-bacterial activity; conditions: 25 μg/mL; resistant strain
Excerpt: as §1, §2

resistant E.coli = test: Antibacterial assay, resistant strains; type: cell-based, Escherichia coli; set-up: key to Antibacterial activity, resistant E.coli: Activity: Positive = have anti-bacterial activity; --- = no anti-bacterial activity; conditions: 25 μg/mL; resistant strain
Excerpt: as §1, §2

in vivo = test: in vivo
Description: The cytotoxic evaluation was accomplished using the decorum designed by ([Khan et al., 2011]). To a plate of 96 wells, artificial seawater and nauplii were added. Test samples were taken in wells (40, 20, 10, 5 μg/mL) after making up the final volume with seawater, the plates were left uncovered under the lamp, and after 24 h, the number of surviving larvae was calculated. For samples having ≥50% mortality, the median lethal conc was calculated using the table curve software, Doxorubicin was used as + ve control, and DMSO was the -ve. The percentage of killed organisms was found using the formula. Percentage Mortality=No of dead shrimps÷Total Number of Shrimps×100
The results of all the experiments were articulated as mean ± SD. Each test was performed in triplicate. TAC assay was analyzed by one-way analysis of variance (ANOVA) following DUNCAN’S test using the statistical package for social sciences 18 and p < 0.05 was considered as significant where appropriate. For samples having ≥50% mortality, the median lethal concentration (LC50) was calculated using the table curve software.
This evaluation test forms the basis for the bioactive scanning of compounds for their potential as anti-cancer moieties, to be investigated on a large scale ([Amanullah et al., 2012]). […] Similarities between Artemia salina and mammalian cells have been reported due to DNA-dependent RNA polymerases ([Birndorf et al., 1975]). These Schiff bases were investigated for their cytotoxic potential. […] Doxorubicin was used as the positive control.

[4] = test system: Bacillus subtilis (ATCC-6633); test: Antibacterial assay, micro broth dilution; type: cell-based; set-up: key to Antibacterial activity, Bacillus subtilis: Activity: Active = Bacterial activity; --- = no activity; conditions: 25 μg/mL
Excerpt: as §1, §2

[5] = test system: Pseudomonas aeruginosa (ATCC-15442); test: Antibacterial assay, micro broth dilution; type: cell-based; conditions: ATCC15442
Excerpt: as §1, §2

Compound	%DPPH inhibition (% free radical scavenging) [1]	MIC [2]	MIC ([3]; ATCC1705)	MIC ([3]; ATCC1705, 24 h)	MIC [5]	Antibacterial activity, resistant P. aeruginosa: Activity (resistant P. aeruginosa)	Antibacterial activity, resistant E.coli: Activity (resistant E.coli)	LC50 at 24 h (in vivo)	Antibacterial activity, Bacillus subtilis: Activity [4]
S=c1[nH]nc(Cc2c[nH]c3ccccc23)n1N=Cc1ccc(Cl)cc1 [Compound 5c]	11.1%	25 µg/mL (≈ 68 µM)	12.5 µg/mL (≈ 34 µM)			---	---	5.7 µg/mL (≈ 15.5 µM)	
Oc1ccc(C=Nn2c(Cc3c[nH]c4ccccc34)n[nH]c2=S)cc1 [Compound 5e]	8.3%	25 µg/mL (≈ 71.5 µM)	12.5 µg/mL (≈ 35.8 µM)		3.12 µg/mL (≈ 8.93 µM)	---	---	14.1 µg/mL (≈ 40.5 µM)	---
O=[N+]([O-])c1ccc(C=Nn2c(Cc3c[nH]c4ccccc34)n[nH]c2=S)cc1 [Compound 5d]	11.1%	25 µg/mL (≈ 66.1 µM)	12.5 µg/mL (≈ 33 µM)			---	---	5.7 µg/mL (≈ 15.1 µM)	
Oc1cccc(C=Nn2c(Cc3c[nH]c4ccccc34)n[nH]c2=S)c1 [Compound 5a]			12.5 µg/mL (≈ 35.8 µM)		12.5 µg/mL (≈ 35.8 µM)			11.2 µg/mL (≈ 31.9 µM)	

The next molecules have a lower MIC ([3]; ATCC1705) than those just listed; values first:

%DPPH inhibition (% free radical scavenging) [1]	MIC [2]	MIC ([3]; ATCC1705)	MIC ([3]; ATCC1705, 24 h)	MIC [5]	Compound	Antibacterial activity, resistant P. aeruginosa: Activity (resistant P. aeruginosa)	Antibacterial activity, resistant E.coli: Activity (resistant E.coli)	LC50 at 24 h (in vivo)	Antibacterial activity, Bacillus subtilis: Activity [4]
32%		6.25 µg/mL (≈ 17.2 µM)		12.5 µg/mL (≈ 34.4 µM)	COc1cccc(C=Nn2c(Cc3c[nH]c4ccccc34)n[nH]c2=S)c1 [Compound 5b]	---	---	14.1 µg/mL (≈ 38.9 µM)	---
		6.25 µg/mL (≈ 14.8 µM)			COc1cc(C=Nn2c(Cc3c[nH]c4ccccc34)n[nH]c2=S)cc(OC)c1OC [Compound 5g]	---	---	18.2 µg/mL (≈ 42.9 µM)	---
		3.12 µg/mL (≈ 8.48 µM)	3.12 µg/mL (≈ 8.49 µM)		S=c1[nH]nc(Cc2c[nH]c3ccccc23)n1N=Cc1cccc(Cl)c1 [Compound 5f]	---	---	5.7 µg/mL (≈ 15.5 µM)	---
